Values quoted from earlier work in patent US12384832B2 (priority 2019, dated 2025).
Where two headings read alike, the source gives them in different places.

Target: TEM-1 (Escherichia coli, UniProt P62593)
Details: read-out: KM TEM-1, cited from earlier work

Sequence of TEM-1 (P62593 24-286 limits assumed): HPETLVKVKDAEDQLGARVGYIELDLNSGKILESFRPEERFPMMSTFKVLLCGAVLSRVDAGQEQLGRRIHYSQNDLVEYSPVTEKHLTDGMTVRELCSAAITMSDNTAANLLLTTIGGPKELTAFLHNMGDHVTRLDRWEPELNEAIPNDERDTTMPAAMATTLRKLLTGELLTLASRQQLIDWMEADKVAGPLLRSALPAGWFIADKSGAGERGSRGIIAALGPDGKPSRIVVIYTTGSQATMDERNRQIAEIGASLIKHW

Structure (SMILES): CC1(C)S[C@@H]2[C@H](NC(=O)[C@H](N)c3ccccc3)C(=O)N2[C@H]1C(=O)O [ampicillin]
- Km (substrate hydrolysis): 40 µM

Structure (SMILES): CC1(C)S[C@@H]2[C@H](NC(=O)Cc3ccccc3)C(=O)N2[C@H]1C(=O)O [benzylpenicillin]
- Km (substrate hydrolysis): 26 µM

Structure (SMILES): O=C(Cc1cccs1)N[C@@H]1C(=O)N2C(C(=O)[O-])=C(C[n+]3ccccc3)CS[C@H]12 [cefaloridine]
- Km: 244 µM
